The values that follow come from patent US11071701B2, “Medicament and cosmetic composition comprising resorcinol derivatives” (Symrise AG, priority 2016, dated 2021).

Experiment [1] has as its system Human epidermal melanoma cells A375. As to the kind of experiment: Visible light induced hyperpigmentation in vitro (melanin quantification). Particulars: for Inhibition vs. visible light induced / Melanin: visible light 480 J/cm2; for Melanin: treated 48 h prior to and past irradiation; for inhibition of visible light induced hyperpigmentation (in words): summary of Table 1. The experiment is classed as cell-based. The method, then: Human epidermal melanoma cells A375 were cultured in 6-well plates. The cells were exposed to visible light (480 J/cm2) with Hydrosun 750 equipped with KG1 filter. 48 h prior to and past to the irradiation the cells were treated with test compounds in non-cytotoxic concentrations. Melanocytes were lysed in a solution of NaOH. Melanin was quantified by measurement of absorbance at 405 nm and calculation based on a melanin standard curve.

Experiment [2] deals with ex vivo human skin explants. As to the kind of experiment: Melanin formation after visible light irradiation on ex vivo human skin. Particulars: visible light 480 J/cm2; for % of melanin: Fontana-Masson stain, image analysis. The protocol: The below formulations were applied on ex vivo human skin explants from abdominal surgery of a donor with phototype IV (Fitzpatrick scale). 48 h after the formulations were removed with a cotton pad. Skin explants were exposed to visible light (480 J/cm2) with Hydrosun 750 equipped with KG1 filter. Formulations were reapplied afterwards. 48 h later skin sections were prepared and melanin was stained by Fontana-Masson stain. Quantification of melanin was done by image analysis.

With `CCCCc1ccc(O)cc1O` [4-Butylresorcinol, 4-butyl resorcinol], the “Inhibition vs. visible light induced” value was found to be 58% in experiment [1] (concentration 0.0000316 %), 100% in experiment [1] (concentration 0.0001000 %) and 183% in experiment [1] (concentration 0.0003160 %). Also, the Melanin in experiment [1] (concentration 0.0000316 %) was 2.3136 ± 0.6518 µg; in experiment [1] (concentration 0.0001000 %) it was 1.8593 ± 0.5365 µg; in experiment [1] (concentration 0.0003160 %) it was 0.9849 ± 0.0738 µg. Moreover, the “inhibition of visible light induced hyperpigmentation (in words)” value (“inhibition … (in words)” below) in experiment [1] was “significantly inhibit”.
For `CCCCCCc1ccc(O)cc1O` [4-Hexylresorcinol, 4-hexyl resorcinol], the “Inhibition vs. visible light induced” value in experiment [1] (concentration 0.000005 %) stood at 91%; in experiment [1] (concentration 0.000015 %) it was 102%; in experiment [1] (concentration 0.000050 %) it was 166%. Moreover, the Melanin in experiment [1] (concentration 0.000005 %) was determined as 1.9616 ± 0.2899 µg; in experiment [1] (concentration 0.000015 %) it was 1.8407 ± 0.1988 µg; in experiment [1] (concentration 0.000050 %) it was 1.1668 ± 0.1312 µg. The “inhibition … (in words)” value in experiment [1] was “significantly inhibit”.
In the case of `CC(c1ccccc1)c1ccc(O)cc1O` (stereo not shown) [SymWhite ® 377, phenylethyl resorcinol], the “Inhibition vs. visible light induced” value in experiment [1] (concentration 0.000068 %) was 79%; in experiment [1] (concentration 0.000210 %) it was 86%; in experiment [1] (concentration 0.000680 %), 100%. Besides, the Melanin in experiment [1] (concentration 0.000068 %) turned out to be 0.5688 ± 0.0793 µg; in experiment [1] (concentration 0.000210 %), 0.5280 ± 0.0494 µg; in experiment [1] (concentration 0.000680 %), 0.4598 ± 0.1024 µg. In addition, the “inhibition … (in words)” value in experiment [1] is “significantly inhibit”. Besides, the “% of melanin” value in experiment [2] (0.2% in formulation applied to skin explants (phototype IV)) was 42.48 ± 2.6%; in experiment [2] (0.5% in formulation applied to skin explants (phototype IV)) it was 25.91 ± 1.2%. Further, the “Inhibition vs Placebo” value in experiment [2] (0.2% in formulation applied to skin explants) was 67.5%; in experiment [2] (0.5% in formulation applied to skin explants), 125.7%.
